Columns and labels:
[1] = test system: cultivated human tumour cells; assay: Alamar Blue cytotoxicity assay (general); assay type: cell-based; conditions: summary in words, see Table 1
Description: Alamar Blue™ Cytotoxicity Assays
The Alamar Blue™ assay is designed to measure quantitatively the proliferation of cells by incorporating a fluorometric/colorimetric growth indicator based on the detection of metabolic activity.
Cell culture: The various human tumor cell lines can be purchased from American Type Culture Collection (ATCC) or the German Collection of Microorganisms and Cell Cultures (DSMZ) and cultivated in 75 to 175 cm^2 tissue culture flasks in the medium indicated by the supplier. The cells are maintained at 37° C. and 5% CO2 in a humidified atmosphere, with an appropriate split ratio. Logarithmically growing cells are used for the assays.
Assay conditions: On day one of the experiment 1000-4000 cells (in 100 μl medium) are seeded into each well of a sterile 96-well plate. The number of cells used is dependent on the growth rate and size of the cells. Eight wells on each plate are left free to accommodate for controls (4 wells for medium plus reduced AlamarBlue™, and 4 wells for medium plus oxidized AlamarBlue™). The plates are kept in the incubator overnight. On day two of the experiment serial dilutions of the inhibitor are prepared in medium containing 0.1% DMSO. […] After 4-5 h of incubation, the plates are measured in a fluorescence spectrophotometer (excitation 530 nm, emission 590 nm, slits 15, integrate time 0.1). […]

[2] = test system: cultivated human tumour cells; assay: FACS analysis on PI stained tumor cells, cell cycle progression (general); assay type: cell-based; conditions: summary in words, see Table 1
Description: FACS Analysis on PI Stained Tumor Cells
Propidium iodine (PI) binds stoichiometrically to double stranded DNA and thus is a suitable agent to measure the DNA content of cells in order to determine the percentage of cells residing in various cell cycle stages (G0/1-, S- and G2/M-phases), whereas cells in G0 or G1 phase do have a diploid DNA content (2N) cells in G2 and M-phase (mitosis) do have a doubled (4N) DNA content.
Cell culture: The various human tumor cell lines can be purchased from American Type Culture Collection (ATCC) or the German Collection of Microorganisms and Cell Cultures (DSMZ) and cultivated in 75 to 175 cm^2 tissue culture flasks in the medium indicated by the supplier. […]
Data analysis: Analysis of the DNA content of the cells can be performed using a FACS analyzer equipped with an argon laser (500 mW, emission 488 nm) and the use of the DNA Cell Quest analysis software (Beckton Dickinson). The logarithmic PI fluorescence is determined in a band-pass filter (Beckton Dickinson 585/43). Quantification of the cell populations residing in the individual cell cycle phases (e.g. G0/G1-, S- and G2/M-phases) is done with the ModFit LT software package from Becton Dickinson. An EC50 value for cells arrested at the G2/M-phase of the cell cycle is calculated by using a sigmoidal curve analysis program (Graph Pad Prism version 3.03).

Question: How did the “activity in cytotoxicity tests on cultivated human tumour cells” value [1] turn out when CC[C@@H]1C(=O)N(C)c2cnc(Nc3ccc(C(=O)NC4CCN(C)CC4)cc3OC)nc2N1C1CCCC1 [Example 46, 4-[[(7R)-8-cyclopentyl-7-ethyl-5,6,7,8-tetrahydro-5-methyl-6-oxo-2-pteridinyl]amino]-3-methoxy-N-(1-methyl-4-piperidinyl)-benzamide] was run?
Answer: good to very good activity

Question: What about the “inhibitory effect on cell cycle progression by FACS analysis” value [2] of the same compound?
Answer: good to very good activity
